According to patent US20250187998A1, “IDENTIFICATION OF SOIL BACTERIA-ENRICHING AGENTS AND METHODS OF USE THEREOF” (California Institute of Technology, priority 2023, published 2025):

Columns and labels:
P. putida KT2440 (PP) = assay: Enrichment of bioinoculant in soil in the presence of plants (bulk soil and root qPCR); format: in vivo, Pseudomonas putida; Arabidopsis thaliana seedlings; conditions: agriculture soil in magenta box, +/- 20 mM phenylethylamine, 10^5 cells per gram of soil, four Arabidopsis seedlings, 1 or 2 weeks
From the text: Some embodiments herein are directed to a method of assessing whether a given soil bacteria-enriching agent enriches a specific species of bacteria in a soil microbiome comprising at least one additional bacterial species when one or more plants are being supported by the soil. In some embodiments, the method comprises adding a known concentration of one or more species of bacteria to soil along with a soil bacteria-enriching agent. In some embodiments, the bacteria comprise Pseudomonas putida (PP), Azotobacter vinelandii (AV), Bacillus subtilis (BS), and/or Azospirillum brasilense (AB). In some embodiments, soil moisture at the start of the experiment is adjusted a desired level for growth of the plant. One or more plants are then planted in the treated soil and allowed to grow for about 1, 2, 3, 4, 5, 6, 7, 8, 9, 10, 11, 12, 13, 14, 15, 16, 17, 18, 19, 20, 21, 22, 23, 24, 25, 26, 27, 28, 29, 30, or 31 days or more, or for an amount of time that is in a range that is defined by any two of the preceding values. […] The quantity of one or more species of bacteria in the soil and/or the plant roots is then determined and one or more soil bacteria-enriching agents that uniquely promote the growth and attraction of a desired bacterial species as compared to one or more other bacteria in the soil microbiome are identified. […]

Pseudomonas putida [1] = assay: Soil competition (soil bacteria-enrichment) assay, qPCR with strain-specific probes; format: cell-based; conditions: 1 g non-sterile agriculture soil, 300 μL exudates, 20 mM target carbon substrate, four species pooled, 72 hours, qPCR (FIG. 24)
Experimental: (§1) In some embodiments, the competition assay comprises adding one or more bacteria of interest to non-sterile agriculture soil at an equal starting OD and incubating the soil with plant root exudate and a desired concentration of candidate soil-bacteria enriching agent. In some embodiments, the non-sterile agriculture soil further comprises one or more plants. Methods of obtaining plant root exudate are known in the art. All such methods are suitable for use in the methods disclosed herein. For example, in some embodiments, plant root exudate is obtained by surface sterilizing Arabidopsis thaliana seeds, sowing the seeds on an agar plate and growing the seeds for 7 days. In some embodiments, after 7 days, the seedlings are transferred to a multi-well plate for exudate collection. In some embodiments, exudate collection comprises adding MS media to each well of the multi-well well plate along with about 50, 7-day old, Arabidopsis seedlings. The seedlings are then incubated with shaking in growth chamber for about 24 hours. After 24 hours, the exudates are collected, pooled, and filter sterilized. In some embodiments, the treated non-sterile agriculture soil is incubated with plant root exudate and a desired concentration of soil bacteria-enriching agent for about 3 days. After 3 days, DNA is extracted from soil and the concentration of the bacteria in the soil is measured. For example, in some embodiments, qPCR analysis is conducted using a universal bacteria primer “ALL” and species-specific primers. The threshold cycle (Ct) value for the universal primer is then subtracted from each of the species-specific primers to get the dCt or ΔCt.
(§2) The ability of the identified compounds to effectively manipulate the soil microbial community was examined using a series of soil bacteria-enrichment experiments. First, the ability of the candidate selective carbon substrates to influence microbial competition was tested using a series of soil competition experiments. 1 g of non-sterile agriculture soil was added to a 2 mL tube along with 300 μL of exudates, 20 mM target carbon substrates and an OD 3.33 of all four species pooled at an equal starting concentration. Tubes were collected after 72 hours and stored in −80° C. before processing. DNA was then extracted and screened using qPCR with probes unique to each strain to determine the abundance of each strain in the mixed community.

Pseudomonas putida [2] = assay: Persistence of P. putida bioinoculant in non-sterile soil over time (qPCR, ΔCt); format: cell-based; conditions: initial density 10^5 cfu/g soil, exudate solution +/- 20 mM PEA, 28° C., sampled every 3 days, qPCR ΔCt (FIG. 25-26)
Experimental: FIG. 25-26 are graphs showing persistence of a P. putida bioinoculant over time. […] Lower ΔCt indicates higher abundance. P. putida was introduced into non-sterile soil at an initial density of 10^5 cfu/g soil in exudate solution +/−20 mM phenylethylamine (PEA) at day 0 and allowed to incubate at 28° C. Two replicates are shown for each condition. Every 3 days, soil was collected, and DNA was extracted to probe the concentration of P. putida using 16S primers. Template DNA for qPCR was normalized to ˜1 ng/reaction.

Azospirillum brasilense = assay: Soil competition (soil bacteria-enrichment) assay, qPCR with strain-specific probes; format: cell-based; conditions: 1 g non-sterile agriculture soil, 300 μL exudates, 20 mM target carbon substrate, four species pooled, 72 hours, qPCR (FIG. 21)
Experimental: as §1, §2

Bacillus subtilis = assay: as above; format: cell-based; conditions: 1 g non-sterile agriculture soil, 300 μL exudates, 20 mM target carbon substrate, four species pooled, 72 hours, qPCR (FIG. 23)
Experimental: as §1, §2

SMILES | enrichment of Pseudomonas putida in agricultural soils with native microbiome (Pseudomonas putida [1]) | enrichment of Bacillus subtilis in agricultural soils with a native microbiome (Bacillus subtilis) | other results
NCCc1ccccc1 [phenylethylamine, Phenylethylamine] | can be used to enrich Pseudomonas putida |  | enrichment of PP in the bulk soil (P. putida KT2440 (PP); qPCR (FIG. 27)): enriched; enrichment of PP on plant root (root colonization) (P. putida KT2440 (PP); root DNA qPCR (FIG. 28)): enriched; persistence of Pseudomonas putida in agricultural soil (Pseudomonas putida [2]): persists longer
CCC(=O)[O-].[Na+] [sodium propionate] |  |  | enrichment of Azospirillum brasilense in agricultural soils with a native microbiome (Azospirillum brasilense): can be used to enrich Azospirillum brasilense
COC1OC(CO)C(O)C(O)C1O [α-methyl d-galactoside, a-Methyl-D-Galactoside] |  | can be used to enrich Bacillus subtilis | 
OC[C@H]1O[C@@H](Oc2ccc(O)cc2)[C@H](O)[C@@H](O)[C@@H]1O [arbutin, Arbutin] |  | can be used to enrich Bacillus subtilis | 
CCCCCCCCCC(=O)O [capric acid, Capric acid] | can be used to enrich Pseudomonas putida |  | 
